Laboratory results reported in PubChem BioAssay (NCI).
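The compound was tested at five concentrations on cells cultured in 96-well plates, with a 48-hour exposure period. The concentration for full growth arrest is given as TGI.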

Assays:
Assay in all cases: NCI tumour cell line growth inhibition, 48 h
786-0 renal = system: 786-0 renal
A498 renal = system: A498 renal
A549 NSCLC = system: A549 NSCLC
ACHN renal = system: ACHN renal
CAKI-1 renal = system: CAKI-1 renal
CCRF-CEM leukemia = system: CCRF-CEM leukemia
COLO 205 colon = system: COLO 205 colon
DLD-1 colon = system: DLD-1 colon
DMS 114 small cell lung = system: DMS 114 small cell lung
DMS 273 small cell lung = system: DMS 273 small cell lung
EKVX NSCLC = system: EKVX NSCLC
HCC-2998 colon = system: HCC-2998 colon
HCT-116 colon = system: HCT-116 colon
HCT-15 colon = system: HCT-15 colon
HL-60(TB) leukemia = system: HL-60(TB) leukemia
HOP-18 NSCLC = system: HOP-18 NSCLC
HOP-62 NSCLC = system: HOP-62 NSCLC
HOP-92 NSCLC = system: HOP-92 NSCLC
HT29 colon = system: HT29 colon
IGROV1 ovarian = system: IGROV1 ovarian
K-562 leukemia = system: K-562 leukemia
KM12 colon = system: KM12 colon
KM20L2 colon = system: KM20L2 colon
LOX IMVI melanoma = system: LOX IMVI melanoma
LXFL 529 NSCLC = system: LXFL 529 NSCLC
M14 melanoma = system: M14 melanoma
M19-MEL melanoma = system: M19-MEL melanoma
MALME-3M melanoma = system: MALME-3M melanoma
MOLT-4 leukemia = system: MOLT-4 leukemia
NCI-H226 lung = system: NCI-H226 lung
NCI-H23 lung = system: NCI-H23 lung
NCI-H460 lung = system: NCI-H460 lung
NCI-H522 lung = system: NCI-H522 lung
OVCAR-3 ovarian = system: OVCAR-3 ovarian
OVCAR-4 ovarian = system: OVCAR-4 ovarian
OVCAR-5 ovarian = system: OVCAR-5 ovarian
OVCAR-8 ovarian = system: OVCAR-8 ovarian
RPMI-8226 leukemia = system: RPMI-8226 leukemia
RXF 393 renal = system: RXF 393 renal
RXF-631 renal = system: RXF-631 renal
SF-268 CNS = system: SF-268 CNS
SF-295 CNS = system: SF-295 CNS
SF-539 CNS = system: SF-539 CNS
SK-MEL-2 melanoma = system: SK-MEL-2 melanoma
SK-MEL-28 melanoma = system: SK-MEL-28 melanoma
SK-MEL-5 melanoma = system: SK-MEL-5 melanoma
SK-OV-3 ovarian = system: SK-OV-3 ovarian
SN12C renal = system: SN12C renal
SNB-19 CNS = system: SNB-19 CNS
SNB-75 CNS = system: SNB-75 CNS
SNB-78 CNS = system: SNB-78 CNS
SR leukemia = system: SR leukemia
TK-10 renal = system: TK-10 renal
U251 CNS = system: U251 CNS
UACC-257 melanoma = system: UACC-257 melanoma
UACC-62 melanoma = system: UACC-62 melanoma
UO-31 renal = system: UO-31 renal
XF 498 CNS = system: XF 498 CNS
SW-620 colon = system: SW-620 colon

Structure (SMILES): CCOC(OC1=CCCC1)C(C)[Se]c1ccccc1 (configuration not stated)
- TGI (786-0 renal): 41.8 µM
- TGI (A498 renal): > 100 µM
- TGI (A549 NSCLC): > 100 µM
- TGI (ACHN renal): > 100 µM
- TGI (CAKI-1 renal): > 100 µM
- TGI (CCRF-CEM leukemia): 46.6 µM
- TGI (COLO 205 colon): 39.9 µM
- TGI (DLD-1 colon): 48.4 µM
- TGI (DMS 114 small cell lung): 20.4 µM
- TGI (DMS 273 small cell lung): 31.3 µM
- TGI (EKVX NSCLC): > 100 µM
- TGI (HCC-2998 colon): > 100 µM
- TGI (HCT-116 colon): 45.1 µM
- TGI (HCT-15 colon): 32 µM
- TGI (HL-60(TB) leukemia): 42.9 µM
- TGI (HOP-18 NSCLC): > 100 µM
- TGI (HOP-62 NSCLC): > 100 µM
- TGI (HOP-92 NSCLC): 81.4 µM
- TGI (HT29 colon): 44.4 µM
- TGI (IGROV1 ovarian): > 100 µM
- TGI (K-562 leukemia): > 100 µM
- TGI (KM12 colon): > 100 µM
- TGI (KM20L2 colon): 79.6 µM
- TGI (LOX IMVI melanoma): 28.9 µM
- TGI (LXFL 529 NSCLC): > 100 µM
- TGI (M14 melanoma): > 100 µM
- TGI (M19-MEL melanoma): 66.3 µM
- TGI (MALME-3M melanoma): 88.4 µM
- TGI (MOLT-4 leukemia): 64.6 µM
- TGI (NCI-H226 lung): > 100 µM
- TGI (NCI-H23 lung): 62.3 µM
- TGI (NCI-H460 lung): 40.1 µM
- TGI (NCI-H522 lung): 35.9 µM
- TGI (OVCAR-3 ovarian): > 100 µM
- TGI (OVCAR-4 ovarian): > 100 µM
- TGI (OVCAR-5 ovarian): 60.6 µM
- TGI (OVCAR-8 ovarian): > 100 µM
- TGI (RPMI-8226 leukemia): 43.7 µM
- TGI (RXF 393 renal): 72.8 µM
- TGI (RXF-631 renal): 41.4 µM
- TGI (SF-268 CNS): 59 µM
- TGI (SF-295 CNS): > 100 µM
- TGI (SF-539 CNS): 71.7 µM
- TGI (SK-MEL-2 melanoma): > 100 µM
- TGI (SK-MEL-28 melanoma): > 100 µM
- TGI (SK-MEL-5 melanoma): 52.4 µM
- TGI (SK-OV-3 ovarian): > 100 µM
- TGI (SN12C renal): > 100 µM
- TGI (SNB-19 CNS): > 100 µM
- TGI (SNB-75 CNS): 90.4 µM
- TGI (SNB-78 CNS): > 100 µM
- TGI (SR leukemia): 41.2 µM
- TGI (TK-10 renal): > 100 µM
- TGI (U251 CNS): 83 µM
- TGI (UACC-257 melanoma): > 100 µM
- TGI (UACC-62 melanoma): > 100 µM
- TGI (UO-31 renal): > 100 µM
- TGI (XF 498 CNS): 45.1 µM

Structure (SMILES): O=S(=O)(N/N=C/c1c(Cl)cccc1Cl)c1ccccc1
- TGI (A498 renal): > 100 µM
- TGI (A549 NSCLC): > 100 µM
- TGI (CCRF-CEM leukemia): > 100 µM
- TGI (COLO 205 colon): > 100 µM
- TGI (DLD-1 colon): > 100 µM
- TGI (DMS 114 small cell lung): > 100 µM
- TGI (DMS 273 small cell lung): > 100 µM
- TGI (EKVX NSCLC): > 100 µM
- TGI (HCC-2998 colon): > 100 µM
- TGI (HCT-116 colon): > 100 µM
- TGI (HCT-15 colon): > 100 µM
- TGI (HL-60(TB) leukemia): 70.8 µM
- TGI (HOP-18 NSCLC): > 100 µM
- TGI (HOP-62 NSCLC): > 100 µM
- TGI (HOP-92 NSCLC): > 100 µM
- TGI (HT29 colon): > 100 µM
- TGI (IGROV1 ovarian): > 100 µM
- TGI (K-562 leukemia): > 100 µM
- TGI (KM12 colon): > 100 µM
- TGI (KM20L2 colon): > 100 µM
- TGI (LOX IMVI melanoma): > 100 µM
- TGI (LXFL 529 NSCLC): > 100 µM
- TGI (M14 melanoma): > 100 µM
- TGI (M19-MEL melanoma): > 100 µM
- TGI (MALME-3M melanoma): > 100 µM
- TGI (MOLT-4 leukemia): > 100 µM
- TGI (NCI-H226 lung): > 100 µM
- TGI (NCI-H23 lung): > 100 µM
- TGI (NCI-H460 lung): > 100 µM
- TGI (OVCAR-3 ovarian): > 100 µM
- TGI (OVCAR-4 ovarian): > 100 µM
- TGI (OVCAR-5 ovarian): > 100 µM
- TGI (OVCAR-8 ovarian): > 100 µM
- TGI (RPMI-8226 leukemia): > 100 µM
- TGI (RXF 393 renal): > 100 µM
- TGI (RXF-631 renal): > 100 µM
- TGI (SF-268 CNS): > 100 µM
- TGI (SF-295 CNS): > 100 µM
- TGI (SF-539 CNS): > 100 µM
- TGI (SK-MEL-2 melanoma): > 100 µM
- TGI (SK-MEL-28 melanoma): > 100 µM
- TGI (SK-MEL-5 melanoma): > 100 µM
- TGI (SK-OV-3 ovarian): > 100 µM
- TGI (SN12C renal): > 100 µM
- TGI (SNB-75 CNS): > 100 µM
- TGI (SNB-78 CNS): > 100 µM
- TGI (SR leukemia): > 100 µM
- TGI (SW-620 colon): > 100 µM
- TGI (TK-10 renal): > 100 µM
- TGI (U251 CNS): > 100 µM
- TGI (UACC-257 melanoma): > 100 µM
- TGI (UACC-62 melanoma): > 100 µM
- TGI (UO-31 renal): > 100 µM
- TGI (XF 498 CNS): > 100 µM
